Laboratory results: PubChem BioAssay (NCI)
Values joined by “and” are separate entries in the source; they are usually repeats but may differ in a detail not shown here. Identical values can stand only once.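 Cells were grown in 96-well plates and exposed to each compound for 48 hours at five concentrations; endpoints were interpolated linearly between bracketing concentrations, or set to the highest concentration if not reached. At the GI50, growth is halved. TGI: total growth inhibition.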

Columns and labels:
Assay in all cases: NCI-60 cell line screen, 48 h
[1] = test system: SF-539 CNS
[2] = test system: MALME-3M melanoma
[3] = test system: HCT-116 colon
[4] = test system: SF-268 CNS
[5] = test system: NCI-H226 lung
[6] = test system: M14 melanoma
[7] = test system: SK-MEL-5 melanoma
[8] = test system: SF-295 CNS
[9] = test system: K-562 leukemia
[10] = test system: KM12 colon

| Compound | TGI [1] [µM] | TGI [2] [µM] | TGI [3] [µM] | TGI [4] [µM] | TGI [5] [µM] | TGI [6] | TGI [7] [µM] | TGI [8] [µM] | TGI [9] [µM] | TGI [10] [µM] | GI50 [1] [µM] | GI50 [2] [µM] | GI50 [3] [µM] | GI50 [4] [µM] | GI50 [5] [µM] | GI50 [6] [µM] | GI50 [7] [µM] | GI50 [8] [µM] | GI50 [9] [µM] | GI50 [10] [µM] |
| --- | --- | --- | --- | --- | --- | --- | --- | --- | --- | --- | --- | --- | --- | --- | --- | --- | --- | --- | --- | --- |
| O=C(O)c1ccc(S(=O)(=O)c2ccccc2)c([N+](=O)[O-])c1 | > 100 | > 100 | > 100 | > 100 | > 100 | > 100 µM | > 100 | > 100 | > 100 | > 100 |  |  |  |  |  |  |  |  |  |  |
| S=CN1CCCCC1 | > 100 | > 100 | > 100 | > 100 | > 100 | > 100 µM | > 100 | > 100 | > 100 | > 100 |  |  |  |  |  |  |  |  |  |  |
| COC(=O)C1(C)C=C(Nc2ccccc2)C(=O)N1c1ccccc1 (configuration not stated) | > 100 | > 100 | > 100 | > 100 | > 100 | > 100 µM | > 100 | > 100 | > 100 | > 100 |  |  |  |  |  |  |  |  |  |  |
| Cc1cc2c(cc1C)NC(=O)C(NC(=O)/C=C/c1ccccc1)C=N2 (configuration not stated) | > 100 | > 100 | 50.8 | > 100 | > 100 | > 100 µM | > 100 | > 100 | 62.2 | 55.4 |  |  |  |  |  |  |  |  |  |  |
| COc1cccc(-c2nn(-c3ccccc3)cc2-c2ccnc(NCCNS(=O)(=O)c3ccc(Cl)cc3)c2)c1 | > 100 | > 100 | > 100 | > 100 | > 100 | > 100 µM | 3.88 | 57.5 | > 100 | > 100 | 7.35 | 3.8 | 4.63 | 5.49 | 7.21 | 4.15 | 1.94 | 3.89 | 3.73 | 3.72 |
| CC(=O)N(C)OC(=O)CC(=O)c1ccccc1 | > 100 | > 100 | > 100 | > 100 | > 100 | > 100 µM | > 100 | > 100 | > 100 | > 100 |  |  |  |  |  |  |  |  |  |  |
| CN(N=O)C(=O)Nc1c[nH]c(=O)[nH]c1=O | > 100 | > 100 | > 100 |  | > 100 | > 100 µM | > 100 | > 100 | > 100 | > 100 |  |  |  |  |  |  |  |  |  |  |
| Cn1c(C(N)=O)cc2c1-c1nc(Nc3ccccc3)ncc1CCC2 | 28 | 57 | 41.7 | > 100 | 33.7 | 41.1 µM | 25.8 | > 100 | > 100 | 18.3 | 3.93 | 7.63 | 3.52 | 5.52 | 0.902 | 4.73 | 11.4 | 4.65 | 4.65 | 1.48 |
| O=C(Nc1ccc(-c2nc3cc4ccccc4cc3[nH]2)cc1)c1cccc(Br)c1 | 26.7 | 28.9 | > 100 | 26.8 | 50.2 | 24.8 µM | 21.4 | 48.1 |  | 32.4 | 12.9 | 12.8 | 3.89 | 9.22 | 21.4 | 7.59 | 6.58 | 20.7 |  | 7.24 |
| CCCCCCCCCCCCCS(=O)(=O)O | > 100 | > 100 | > 100 | > 100 | > 100 | > 100 µM | > 100 | > 100 |  | > 100 |  |  |  |  |  |  |  |  |  |  |
| Oc1ccc2ccccc2c1C=NCCCN=Cc1c(O)ccc2ccccc12 | 40.8 | 29.7 | 31.4 | > 100 | 12.9 | 23.1 µM | 16 | 42.1 |  | 36.2 | 17.8 | 6.96 | 10 | 16.3 | 0.829 | 7.94 | 4.61 | 9.96 |  | 15.1 |
| CN(C)/[N+]([O-])=N/Oc1cc(Nc2cccc(C(=O)O)c2)c([N+](=O)[O-])cc1[N+](=O)[O-] | > 100 |  | > 100 | 78.5 | > 100 |  | > 100 | > 100 | > 100 | > 100 | > 100 |  | 34.5 | 30 | > 100 |  | 81.4 | > 100 | 61.6 | 86.7 |
| CCCc1c2c([nH]c(=O)c1C)C(=O)c1[nH]c(=O)c(C)c(CCC)c1C2=O | > 100 | 22.2 | 36.7 | 87.4 | > 100 | 17.3 µM | 17.6 | > 100 | 67.1 |  |  |  |  |  |  |  |  |  |  |  |
| CC1=C(C)C(=O)c2c(c(C(=O)c3ccccc3)c3nc4ccccc4n3c2C)C1=O | > 100 |  | > 100 | > 100 | > 100 | > 100 µM | > 100 | > 100 | > 100 | > 100 | > 100 |  | 87.2 | 28.6 | > 100 | > 100 | > 100 | 38.8 | > 100 | > 100 |
| CC(O)C1OC(O)C2OC(C)(C)OC12 (configuration not stated) | > 100 |  | > 100 | > 100 | > 100 | > 100 µM | > 100 | > 100 | > 100 | > 100 |  |  |  |  |  |  |  |  |  |  |
| Cc1ccc(NC(=O)c2[nH]c(=S)nc(N)c2-c2ccccc2C)cc1C | > 100 | > 100 | > 100 | > 100 | > 100 | > 100 µM | > 100 |  | > 100 | > 100 |  |  |  |  |  |  |  |  |  |  |
| O=C(CCN1CCN(c2cccc(Cl)c2)CC1)N1CCc2c([nH]c3ccccc23)C1c1cccnc1 (configuration not stated) | 31.2 | 36.8 | 18.3 |  | 49.9 | 9.22 µM and 19 µM | 21.9 |  | 18.6 | 15.9 |  | 14.9 | 6.36 |  |  | 6.06 | 7.72 |  | 3.99 | 5.04 |
| COC(=O)c1c[nH]cc1CCc1c[nH]cc1C(=O)OC | > 100 | > 100 | > 100 | > 100 | > 100 |  |  | > 100 | > 100 | > 100 |  |  |  |  |  |  |  |  |  |  |
